Results from article PMC6717788 (The Korean Journal of Physiology & Pharmacology : …, 2019).

What was measured:
[1] = molecular target: T1, Slo3 (potassium channel subfamily U member 1, KCNU1) (Homo sapiens, UniProt A8MYU2); test: whole-cell patch clamp, HEK293 cells, […] single dose; format: cell-based; details: HEK293, read-out: % inhibition at 50 μM
T1 sequence (A8MYU2 1-1149): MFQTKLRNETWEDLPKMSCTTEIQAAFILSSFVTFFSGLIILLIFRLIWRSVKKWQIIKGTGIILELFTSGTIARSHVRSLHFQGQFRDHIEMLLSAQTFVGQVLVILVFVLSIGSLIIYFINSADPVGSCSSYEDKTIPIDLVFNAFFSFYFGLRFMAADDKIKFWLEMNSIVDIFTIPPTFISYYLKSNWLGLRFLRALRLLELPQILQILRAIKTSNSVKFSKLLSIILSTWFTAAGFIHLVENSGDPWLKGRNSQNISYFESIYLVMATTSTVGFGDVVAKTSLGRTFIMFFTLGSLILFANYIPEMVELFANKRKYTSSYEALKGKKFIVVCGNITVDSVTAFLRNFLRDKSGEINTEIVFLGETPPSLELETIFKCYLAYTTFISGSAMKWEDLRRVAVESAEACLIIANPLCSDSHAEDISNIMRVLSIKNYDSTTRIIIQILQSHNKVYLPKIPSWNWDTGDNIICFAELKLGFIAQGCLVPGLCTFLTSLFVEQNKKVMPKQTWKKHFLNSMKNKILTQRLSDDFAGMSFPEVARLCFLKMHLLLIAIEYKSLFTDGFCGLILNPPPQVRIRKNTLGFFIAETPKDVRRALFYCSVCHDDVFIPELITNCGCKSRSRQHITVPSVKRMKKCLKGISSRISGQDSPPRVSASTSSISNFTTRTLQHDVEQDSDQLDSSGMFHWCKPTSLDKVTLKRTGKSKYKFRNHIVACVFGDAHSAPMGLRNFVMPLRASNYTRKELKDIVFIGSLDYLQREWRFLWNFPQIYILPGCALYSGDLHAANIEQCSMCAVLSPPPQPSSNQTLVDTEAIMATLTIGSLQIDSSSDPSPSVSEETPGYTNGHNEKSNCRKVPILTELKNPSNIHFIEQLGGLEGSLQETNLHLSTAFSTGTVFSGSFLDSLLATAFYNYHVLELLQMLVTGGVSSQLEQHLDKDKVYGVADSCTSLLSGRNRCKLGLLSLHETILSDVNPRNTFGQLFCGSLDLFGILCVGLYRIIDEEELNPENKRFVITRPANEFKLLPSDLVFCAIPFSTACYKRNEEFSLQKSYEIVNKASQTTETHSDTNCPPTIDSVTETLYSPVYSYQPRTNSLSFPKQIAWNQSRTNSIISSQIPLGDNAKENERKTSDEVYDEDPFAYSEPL
T1 sequence (Q8N7C0 24-313 partner): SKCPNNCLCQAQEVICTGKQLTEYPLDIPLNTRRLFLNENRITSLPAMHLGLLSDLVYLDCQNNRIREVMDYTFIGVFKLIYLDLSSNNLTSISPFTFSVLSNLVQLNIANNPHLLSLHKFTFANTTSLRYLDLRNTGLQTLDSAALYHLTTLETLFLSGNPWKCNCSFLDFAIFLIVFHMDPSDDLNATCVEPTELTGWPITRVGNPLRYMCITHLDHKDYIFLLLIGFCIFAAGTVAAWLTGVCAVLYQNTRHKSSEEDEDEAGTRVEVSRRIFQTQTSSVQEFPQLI

[2] = molecular target: T1, Slo3 (potassium channel subfamily U member 1, KCNU1); test: whole-cell patch clamp, HEK293 cells, dose response; format: cell-based

SMILES | inhibition at 50 µM [1] | EC50 [2]
O=c1cc(-c2ccc(O)c(O)c2)oc2cc(O)cc(O)c12 [luteolin] | 53.5 ± 3.15% | 
O=c1c(O)c(-c2ccc(O)cc2O)oc2cc(O)cc(O)c12 [morin] | 42.1 ± 2.16% | 
O=c1c(O)c(-c2ccc(O)c(O)c2)oc2cc(O)cc(O)c12 [quercetin] |  | 11.3 µM
